Assay [1] concerns primary CLL cells (CLL PBMC). The assay is described as follows: Primary CLL cells apoptosis, viability, MCL-1/BCL-2 (flow cytometry). The assay is classed as cell-based, human. The note with it: for IC50: Homo sapiens, CLL cell, read-out: IC50, absolute number of viable CLL PBMC. As to the method:
(§1) The MEC-1 cell line was obtained from the DSMZ (Braunschweig, Germany) and was cultured in RPMI (10% fetal bovine serum). A LDC526 stock solution was prepared with DMSO, diluted and added to the cultures to reach the specified concentrations. Samples (percentage of CD19+CD5+ CLL cells >90%) of n=37 CLL patients (Table 1) and n=6 healthy normal donor controls were used for experiments after obtaining informed consent according to institutional guidelines, approved by the Ethics Commission of the University of Essen-Duisburg. Peripheral blood mononuclear cells (PBMC) were isolated using Lymphoprep ([…] Technologies, Cologne, Germany) density gradient centrifugation and were used directly for NSG transplantation or in vitro experiments. Untouched normal donor B cells were isolated with a B cell isolation kit (Miltenyi, Bergisch Gladbach, Germany) according to the manufacturer’s instructions. For in vitro experiments, cells were maintained in RPMI supplemented with 10% fetal bovine serum, penicillin and streptomycin.
Apoptosis and cell death were determined by using Annexin V (BD Biosciences, Heidelberg, Germany) and 4′,6-Diamidin-2-phenylindol (DAPI, Sigma-Aldrich) staining. Erythrocytes of murine peripheral blood samples were lysed with NH4Cl hypotonic solution. Single cell suspensions of murine spleens were prepared as previously described. Murine cells were stained with antibodies directed against murine CD3 (clone 145-2C11), CD5 (53-7.3) and CD19 (1D3), respectively. For the detection of human cells in NSG spleens antibodies against human CD3 (clone SK7), CD4 (SK3), CD5 (L17F12), CD8 (SK1), CD19 (J3-119 or SJ25C1) and CD45 (2D1) were used (purchased from BD Bioscience, Biolegend and Beckman Coulter). Flow cytometric analysis was carried out on a LSRII flow cytometer (BD Biosciences, Heidelberg, Germany). Flow cytometric data were analyzed with BD FACSDiva or FlowJo software (FLOWJO, LLC, Ashland, OR, USA). Intracellular staining for MCL-1 and BCL-2 (anti-MCL-1 [clone D2W9E, Cell Signaling Technology, Leiden, The Netherlands] and matched isotype control [clone DA1E, Cell Signaling Technology]; anti-BCL-2 [clone Bcl-2/100, BD Bioscience] and matched isotype control [clone MOPC-21, BD Bioscience]) within MEC-1 and primary CLL cells was performed with the FoxP3 / Transcription factor staining buffer set (eBioscience/Thermo Fisher Scientific, Dreieich, Germany) according to the manufacturer’s instructions. Before permeabilization and antibody incubation cells were stained with a fixable viability dye (eFluor 450, eBioscience/Thermo Fisher Scientific). Before adding the anti-MCL-1 and anti-BCL-2 antibodies permeabilized cells were blocked with 2% mouse serum and 2% rabbit serum (Sigma-Aldrich) in permeabilization buffer. Intracellullar murine lymphocyte staining for Bcl-2 was carried out with the BD Cytofix/Cytoperm kit according to the manufacturer’s instructions. A Hamster Anti-mouse Bcl-2 (clone 3F119, BD Biosciences) and a corresponding isotype control (clone A19-3) were used. Dead cells and doublets were excluded by and FSC/SSC gating and positive DAPI or eFluor 450 viability dye staining, respectively. To assess the impact of LDC526 on the cell-cycle status of MEC-1 cells we used the BrdU Flow Kit according to the manufacturer’s protocol (BD Bioscience). BrdU was added to the media 30 minutes before commencing the analysis.
Data were analyzed with GraphPad Prism 7 software. Differences were assessed by unpaired or paired Student t tests if not indicated otherwise. Two-sided probabilities of less than 0.05 were considered significant. Nonlinear regression sigmoidal dose-response curve fit was used to determine the IC50 values and to generate graphs.
(In general: In flow cytometry, cells or beads pass a laser one at a time.)

The subject of assay [2] is non-malignant normal donor B cells. The assay is described as follows: Normal donor B cell viability (Annexin V/DAPI, absolute counts). The note with it: Homo sapiens, read-out: IC50, viable non-malignant B cells. The assay is classed as cell-based. As to the method: as §1, with “For in vitro experiments, cells were maintained in RPMI supplemented with 10% fetal bovine serum, penicillin and streptomycin.” left out
Apoptosis and cell death were determined by using Annexin V (BD Biosciences, Heidelberg, Germany) and 4′,6-Diamidin-2-phenylindol (DAPI, Sigma-Aldrich) staining. […] Flow cytometric data were analyzed with BD FACSDiva or FlowJo software (FLOWJO, LLC, Ashland, OR, USA). […]
Data were analyzed with GraphPad Prism 7 software. Differences were assessed by unpaired or paired Student t tests if not indicated otherwise. […]

Setting [3] is: 4 hours, increasing concentrations.

SMILES strings stand for the structures. Read-outs that look alike come from different tables or passages of the source.

The values that follow come from publication PMC5995184, “Potent anti-leukemic activity of a specific cyclin-dependent kinase 9 inhibitor in mouse models of chronic lymphocytic leukemia” (Oncotarget, 2018).

In general, IC50 refers to the concentration needed to halve the response being measured. As to `COc1cc(F)ccc1-c1ncnc(Nc2cccc(CS(N)(=O)=O)c2)n1` [LDC526, (3-((4-(4-fluoro-2-methoxyphenyl)-1,3,5-triazin-2-yl)amino)phenyl)methane-sulfonamide], the “apoptosis of primary CLL PBMCs (Annexin V)” value in assay [1] (4 hours, 500 and 1000 nM) is listed as “significantly increased percentages of apoptosis”. The “BCL-2 levels in primary CLL cells” value in assay [1] (setting [3]) was “not significantly altered”. Further, the “MCL-1 protein levels in primary CLL cells” value in assay [1] (setting [3]) is “significantly decreased MCL-1 protein levels”. Moreover, the 50% inhibitory concentration (IC50) in assay [1] (24 hours incubation) is 340 nM; in assay [1] (48 hours incubation) it was 280 nM; in assay [2] (24 hours incubation) it was 900 nM; in assay [2] (48 hours incubation) it was 1480 nM. For the same compound, in assay [1] (high-risk versus low-risk), the “LDC526-induced effect between prognostic CLL subgroups (FISH, CD38, Binet, therapy)” value is on record as “no statistically significant differences”.
